Laboratory results as given in patent publication US20250042881A1, “CCR6 RECEPTOR MODULATORS” (Idorsia Pharmaceuticals Ltd, priority 2021, published 2025).
pIC50: −log10 of the molar value.

Molecular target: T1, human CCR6 (Homo sapiens, UniProt P51684)
T1 construct: expressed in transfected cells; host or cells: HEK-293
T1 sequence (P51684 1-374): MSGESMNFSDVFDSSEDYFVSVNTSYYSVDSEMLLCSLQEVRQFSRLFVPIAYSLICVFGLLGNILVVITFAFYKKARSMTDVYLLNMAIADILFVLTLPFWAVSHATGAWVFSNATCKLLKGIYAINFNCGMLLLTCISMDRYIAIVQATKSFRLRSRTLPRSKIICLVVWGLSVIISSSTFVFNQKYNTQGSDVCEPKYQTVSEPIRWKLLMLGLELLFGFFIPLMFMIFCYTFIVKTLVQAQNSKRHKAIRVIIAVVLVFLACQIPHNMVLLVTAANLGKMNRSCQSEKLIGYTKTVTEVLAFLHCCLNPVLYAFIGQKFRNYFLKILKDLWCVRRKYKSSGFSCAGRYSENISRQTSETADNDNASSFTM
Assay: FLIPR assay: inhibition of CCL20-induced calcium signal in HEK-293 cells expressing human CCR6
Assay type: cell-based
Details: engineered HEK-293 cells expressing human CCR6; agonist CCL20 10 nM; 30 min preincubation; Fluo-8-AM; mean values if determined several times
Protocol: FLIPR assay: The bioactivity of compounds is tested in a fluorometric imaging plate reader (FLIPR: Molecular Devices) using engineered HEK-293 cells expressing the human CCR6 (GenBank: AY242126). Frozen cells are plated on Poly-L-Lysine precoated 384-well plates 2 days prior to bioassay in DMEM medium supplemented with 10% FCS and 1% Penicillin-Streptomycin. At the day of bioassay, cell supernatant is discarded and cells are dye loaded for 30 minutes at room temperature in the dark with Fluo-8-AM (Focus Biomolecules) in Hanks Balanced Salt Solution (Gibco), buffered with 20 mM Hepes at pH 6.75 and supplemented with 0.05% BSA. This buffer, but lacking the dye, is also used for washing and compound dilution steps (assay buffer). Cells are washed free of excess dye with a wash-station (Biotek), leaving 40 microliter of assay buffer at the end. Cells were incubated for 15 minutes at room temperature in the dark, before adding compounds. Stock solutions of test compounds are made up at a concentration of 10 mM in DMSO, and serially diluted first in DMSO and then transferred in assay buffer to concentrations required for inhibition dose response curves. After a 45 minute incubation period in assay buffer at room temperature, 10 microliters of each compound dilution are transferred from a compound plate to the plate containing the recombinant cells in the FLIPR instrument according to the manufacturer's instructions. After cells and compounds were preincubated for 30 minutes at room temperature in the dark, 10 microliter agonist CCL20 (Peprotech) at a final concentration of 10 nM is added, again using the FLIPR instrument. Changes in fluorescence are monitored before and after addition of the test compounds and agonist. Emission peak values above base level after CCL20 addition are exported after base line subtraction. The calculated IC50 values may fluctuate depending on the daily assay performance. Fluctuations of this kind are known to those skilled in the art. In the case where IC50 values have been determined several times for the same compound, mean values are given.

| SMILES | pIC50 |
| --- | --- |
| CN1CC(C)([C@](O)(c2ccc(Br)cc2)c2cncc(-c3nc(C4CCOCC4)n(C4CC4)n3)c2)C1 [Example 1, (R)-(4-Bromo-phenyl)-{5-[1-cyclopropyl-5-(tetrahydro-pyran-4-yl)-1H-[1,2,4]triazol-3-yl]-pyridin-3-yl}-(1,3-dimethyl-azetidin-3-yl)-methanol] | 5.98 |
| CN1CC(C)([C@](O)(c2ccc(C(C)(C)C)cc2)c2cncc(-c3nc(C4CCOCC4)n(C4CC4)n3)c2)C1 [Example 2, (R)-(4-tert-Butyl-phenyl)-{5-[1-cyclopropyl-5-(tetrahydro-pyran-4-yl)-1H-[1,2,4]triazol-3-yl]-pyridin-3-yl}-(1,3-dimethyl-azetidin-3-yl)-methanol] | 7.09 |
| CN1CC(C)([C@](O)(c2ccc(C3(C(F)(F)F)CC3)cc2)c2cncc(-c3nc(C4CCOCC4)n(C4CC4)n3)c2)C1 [Example 3, (R)-{5-[1-Cyclopropyl-5-(tetrahydro-pyran-4-yl)-1H-[1,2,4]triazol-3-yl]-pyridin-3-yl}-(1,3-dimethyl-azetidin-3-yl)-[4-(1-trifluoromethyl-cyclopropyl)-phenyl]-methanol] | 7.30 |
| CN1CC(C)([C@](O)(c2ccc(OC(F)(F)F)cc2)c2cncc(-c3nc(C4CCOCC4)n(C4CC4)n3)c2)C1 [Example 4, (R)-{5-[1-Cyclopropyl-5-(tetrahydro-pyran-4-yl)-1H-[1,2,4]triazol-3-yl]-pyridin-3-yl}-(1,3-dimethyl-azetidin-3-yl)-(4-trifluoromethoxy-phenyl)-methanol] | 6.94 |
| CN1CC(C)([C@](O)(c2ccc(CC(F)(F)F)cc2)c2cncc(-c3nc(C4CCOCC4)n(C4CC4)n3)c2)C1 [Example 5, (R)-{5-[1-Cyclopropyl-5-(tetrahydro-pyran-4-yl)-1H-[1,2,4]triazol-3-yl]-pyridin-3-yl}-(1,3-dimethyl-azetidin-3-yl)-[4-(2,2,2-trifluoro-ethyl)-phenyl]-methanol] | 6.74 |
| CCc1ccc([C@](O)(c2cncc(-c3nc(C4CCOCC4)n(C4CC4)n3)c2)C2(C)CN(C)C2)cc1 [Example 6, (R)-{5-[1-Cyclopropyl-5-(tetrahydro-pyran-4-yl)-1H-[1,2,4]triazol-3-yl]-pyridin-3-yl}-(1,3-dimethyl-azetidin-3-yl)-(4-ethyl-phenyl)-methanol] | 6.91 |
| CCCc1ccc([C@](O)(c2cncc(-c3nc(C4CCOCC4)n(C4CC4)n3)c2)C2(C)CN(C)C2)cc1 [Example 7, (R)-{5-[1-Cyclopropyl-5-(tetrahydro-pyran-4-yl)-1H-[1,2,4]triazol-3-yl]-pyridin-3-yl}-(1,3-dimethyl-azetidin-3-yl)-(4-propyl-phenyl)-methanol] | 7.35 |
| CC(C)c1ccc([C@](O)(c2cncc(-c3nc([C@H]4CC[C@H](O)CC4)n(C4CC4)n3)c2)C2(C)CN(C)C2)cc1 [Example 8, trans-4-(2-Cyclopropyl-5-{5-[(R)-(1,3-dimethyl-azetidin-3-yl)-hydroxy-(4-isopropyl-phenyl)-methyl]-pyridin-3-yl}-2H-[1,2,4]triazol-3-yl)-cyclohexanol] | 7.01 |
| CC(C)c1ccc([C@](O)(c2cncc(-c3nc([C@@](C)(O)C(F)(F)F)n(C4CC4)n3)c2)C2(C)CN(C)C2)cc1 [Example 9, (R)-2-(2-Cyclopropyl-5-{5-[(R)-(1,3-dimethyl-azetidin-3-yl)-hydroxy-(4-isopropyl-phenyl)-methyl]-pyridin-3-yl}-2H-[1,2,4]triazol-3-yl)-1,1,1-trifluoro-propan-2-ol] | 7.65 |
| COC(=O)C12CCC(c3nc(-c4cncc([C@@](O)(c5ccc(C(C)C)cc5)C5(C)CN(C)C5)c4)nn3C3CC3)(CC1)CC2 [Example 10, 4-(2-Cyclopropyl-5-{5-[(R)-(1,3-dimethyl-azetidin-3-yl)-hydroxy-(4-isopropyl-phenyl)-methyl]-pyridin-3-yl}-2H-[1,2,4]triazol-3-yl)-bicyclo[2.2.2]octane-1-carboxylic acid methyl ester] | 7.36 |
| CNC(C)(C)c1nc(-c2cncc([C@@](O)(c3ccc(C(C)C)cc3)C3(C)CN(C)C3)c2)nn1C1CC1 [Example 11, (R)-{5-[1-Cyclopropyl-5-(1-methyl-1-methylamino-ethyl)-1H-[1,2,4]triazol-3-yl]-pyridin-3-yl}-(1,3-dimethyl-azetidin-3-yl)-(4-isopropyl-phenyl)-methanol] | 6.28 |
| CC(C)c1ccc([C@](O)(c2cncc(-c3nc(CC4(O)CCC4)n(C4CC4)n3)c2)C2(C)CN(C)C2)cc1 [Example 12, 1-(2-Cyclopropyl-5-{5-[(R)-(1,3-dimethyl-azetidin-3-yl)-hydroxy-(4-isopropyl-phenyl)-methyl]-pyridin-3-yl}-2H-[1,2,4]triazol-3-ylmethyl)-cyclobutanol] | 6.94 |
| CC(C)c1ccc([C@](O)(c2cncc(-c3nc(C45CCC(C(=O)O)(CC4)CC5)n(C4CC4)n3)c2)C2(C)CN(C)C2)cc1 [Example 13, 4-(2-Cyclopropyl-5-{5-[(R)-(1,3-dimethyl-azetidin-3-yl)-hydroxy-(4-isopropyl-phenyl)-methyl]-pyridin-3-yl}-2H-[1,2,4]triazol-3-yl)-bicyclo[2.2.2]octane-1-carboxylic acid] | 6.83 |
| CC(C)c1ccc([C@](O)(c2cncc(-c3nc(C4CCOCC4)n(C4CC4)n3)c2)C2(C)CN(C)C2)cc1 [Example 14, (R)-{5-[1-Cyclopropyl-5-(tetrahydro-pyran-4-yl)-1H-[1,2,4]triazol-3-yl]-pyridin-3-yl}-(1,3-dimethyl-azetidin-3-yl)-(4-isopropyl-phenyl)-methanol] | 6.93 |
| CC(C)c1ccc([C@](O)(c2cncc(-c3nc(C4CCOCC4)n(C4CCCCC4)n3)c2)C2(C)CN(C)C2)cc1 [Example 15, (R)-{5-[1-Cyclohexyl-5-(tetrahydro-pyran-4-yl)-1H-[1,2,4]triazol-3-yl]-pyridin-3-yl}-(1,3-dimethyl-azetidin-3-yl)-(4-isopropyl-phenyl)-methanol] | 7.77 |
| CC(C)c1ccc([C@](O)(c2cncc(-c3nc(C4CCOCC4)n(C)n3)c2)C2(C)CN(C)C2)cc1 [Example 16, (R)-(1,3-Dimethyl-azetidin-3-yl)-(4-isopropyl-phenyl)-{5-[1-methyl-5-(tetrahydro-pyran-4-yl)-1H-[1,2,4]triazol-3-yl]-pyridin-3-yl}-methanol] | 6.66 |
| CC(C)c1ccc([C@](O)(c2cncc(-c3nc(C4CCOCC4)n(CCO)n3)c2)C2(C)CN(C)C2)cc1 [Example 17, 2-[3-{5-[(R)-(1,3-Dimethyl-azetidin-3-yl)-hydroxy-(4-isopropyl-phenyl)-methyl]-pyridin-3-yl}-5-(tetrahydro-pyran-4-yl)-[1,2,4]triazol-1-yl]-ethanol] | 6.29 |
| CCn1nc(-c2cncc([C@@](O)(c3ccc(C(C)C)cc3)C3(C)CN(C)C3)c2)nc1C1CCOCC1 [Example 18, (R)-(1,3-Dimethyl-azetidin-3-yl)-{5-[1-ethyl-5-(tetrahydro-pyran-4-yl)-1H-[1,2,4]triazol-3-yl]-pyridin-3-yl}-(4-isopropyl-phenyl)-methanol] | 6.78 |
| CC(C)c1ccc([C@](O)(c2cncc(-c3nc(C4CCOCC4)n(C(C)C)n3)c2)C2(C)CN(C)C2)cc1 [Example 19, (R)-(1,3-Dimethyl-azetidin-3-yl)-(4-isopropyl-phenyl)-{5-[1-isopropyl-5-(tetrahydro-pyran-4-yl)-1H-[1,2,4]triazol-3-yl]-pyridin-3-yl}-methanol] | 7.02 |
